pEC50: −log10 of the molar value.

These results are taken from US10266558B2, “Macroheterocyclic nucleoside derivatives and their analogues, production and use thereof” (ASAVI, LLC, priority 2016, dated 2019).

For series [1], the system named is lamivudine-entecavir resistant clone (L180M+M204V+S202G). The note with it: resistant mutant (L180M+M204V+S202G); cited from earlier work.
A further series deals with HBV wild-type. The note with it: cited from earlier work.
Series [2] is described as follows: Metabolic stability in human liver S9 fraction. Format: in vitro ADME. To be noted: pH 7.4. Here is the method:
The human liver S9 fraction metabolic stability in human liver microsomal fraction of Macroheterocyclic nucleoside derivative represented by formula 1 and 2 and Sovaldi. Stock solutions of test compounds and PSI-352707 (10 mM) were prepared in DMSO and stored at −20° C. 10-× standard solutions of PSI-352707 (10, 8, 5, 2 and 1 μM) were prepared by dilution stock solution with water-acetonitrile mixture (1/1, v/v). The reaction mixture was prepared in a total volume of 350.5 μL containing 0.1 M potassium phosphate buffer (pH 7.4), 1 mM NADPH, 7 mM G6P, 1.5 U/mL G6PDH, 3.3 mM MgCl2, 5 mM UDPGA, 122 μLdeionised water and 1 μM test compound. The reaction mixture was pre-incubated at 400 rpm, 37° C. The reaction was initiated by adding 1 mg/mL human liver S9 fraction to the reaction mixture and incubated at 400 rpm, 37° C. […]
ABSciex QTrap 5500 Source (TurboIonSpray) was operated in negative ionization mode (Source temperature 650° C., Source gas 1 and Source gas 2-65 and 40 psi respectively). PSI-352707 and IS (tolbutamide) were detected in MRM mode by transitions with m/z 410 to 150 for H027-4261 (collision energy […]) and 269/170 for tolbutamide (collision energy […]). […] Data analysis and quantitation was performed in Analyst 1.5.2 Software (AB Sciex).

A short description of a further series: physchem. The note with it: simulated gi fluid.
In a further series the target is T1, HCV NS5B RNA-polymerase (Hepatitis C virus genotype 1a, UniProt P27958).
T1 construct: HCV NS5B RNA-polymerase
T1 sequence (P27958 2421-3011): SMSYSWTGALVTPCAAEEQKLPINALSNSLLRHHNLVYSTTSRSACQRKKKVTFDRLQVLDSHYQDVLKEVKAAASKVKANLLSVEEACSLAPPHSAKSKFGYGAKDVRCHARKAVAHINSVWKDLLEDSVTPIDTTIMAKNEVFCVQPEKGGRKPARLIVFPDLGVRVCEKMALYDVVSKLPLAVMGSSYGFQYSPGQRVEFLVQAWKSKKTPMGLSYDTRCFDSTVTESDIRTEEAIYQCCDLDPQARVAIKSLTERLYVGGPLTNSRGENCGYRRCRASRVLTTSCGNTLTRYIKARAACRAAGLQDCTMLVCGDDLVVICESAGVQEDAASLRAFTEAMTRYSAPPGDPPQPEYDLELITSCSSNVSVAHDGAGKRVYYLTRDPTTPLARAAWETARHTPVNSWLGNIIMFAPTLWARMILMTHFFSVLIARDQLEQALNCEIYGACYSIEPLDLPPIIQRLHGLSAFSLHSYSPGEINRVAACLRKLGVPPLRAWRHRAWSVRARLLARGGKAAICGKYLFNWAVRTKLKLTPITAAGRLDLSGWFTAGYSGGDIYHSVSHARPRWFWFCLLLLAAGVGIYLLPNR
The note with it: versus PSI-6206, Gemcitabine and 2′-C-Methylcytidine; cited from earlier work.

The subject of a further series is HCV replicon. To be noted: cited from earlier work.
The conditions of series [3]: in the clinic; cited from earlier work.
Series [4] relates to xenografts models of human pancreatic cancer. To be noted: in vivo; cited from earlier work.

In general, pEC50 refers to the EC50 on a negative log10 scale, so that one unit is a factor of ten. Regarding “2′-Fluoro-6′-methylene-carbocyclic adenosine phosphoramidate [5′-phosphoramidate of FMCA]”, the pEC50 was 7.27 in series [1] and 6.21 in the series with HBV wild-type (HBV replication, wild-type). For the same molecule, the “more potent than FMCA” value in the series with HBV wild-type (against both the wild-type and resistant mutant) is reported as 10 fold.
Broadly, the half-life is the time needed for the level to fall by half in the phase considered. Higher therefore signals slow decline. As to `C[C@@H]1N[P@@](=O)(Oc2ccccc2)OC[C@H]2O[C@@H](n3ccc(=O)[nH]c3=O)[C@](C)(F)[C@@H]2OC(=O)CCCOC1=O` [1(13)], in series [2], the half-life at 1 μM is > 744 min. Besides, the half-life in the series “physchem” was > 1440 min.
For the molecule `CC(C)OC(=O)[C@H](C)NP(=O)(OC[C@H]1O[C@@H](n2ccc(N)nc2=O)C(F)(F)[C@@H]1O)Oc1ccccc1` (some centres unmarked) [AVI-4201], the “inhibitory activity compared with the corresponding nucleoside” value on HCV NS5B RNA-polymerase is “by orders of magnitude higher”.
As to `Nc1ccn([C@@H]2O[C@H](COP(=O)(N[C@H]3CCOC3=O)Oc3ccccc3)[C@@H](O)C2(F)F)c(=O)n1` (some centres unmarked) [AVI-4203], the “inhibitory activity compared with the corresponding nucleoside” value on HCV NS5B RNA-polymerase is “by orders of magnitude higher”.
Turning to `CC(C)OC(=O)[C@H](C)NP(=O)(OC[C@H]1O[C@@H](n2ccc(NO)nc2=O)[C@](C)(O)[C@@H]1O)Oc1ccccc1` (some centres unmarked) [CC-1845], the “inhibitory activity compared with the corresponding nucleoside” value on HCV NS5B RNA-polymerase was “by orders of magnitude higher”.
For the molecule `CC(C)(CO)C(=O)SCCOP(=O)(COC[C@H]1OC(n2cnc3c(=O)[nH]c(N)nc32)[C@](C)(O)[C@@H]1O)NCc1ccccc1` (some centres unmarked) [IDX-184], the negative logarithm of the EC50 (pEC50) in the series on HCV replicon is 6.40.
Take `COc1nc(N)nc2c1ncn2[C@@H]1O[C@H](COP(=O)(N[C@@H](C)C(=O)OCC(C)(C)C)Oc2cccc3ccccc23)[C@@H](O)[C@@]1(C)O` (some centres unmarked) [INX-08189]: in the series with HCV replicon, the negative logarithm of the EC50 (pEC50) was 8.00. Also, the cardiovascular toxicity entry in series [3] is given as “severe cardiovascular toxicity”.
Consider `C[C@H](NP(=O)(OC[C@H]1O[C@@H](n2ccc(N)nc2=O)C(F)(F)[C@@H]1O)Oc1ccccc1)C(=O)OCc1ccccc1` (some centres unmarked) [NUC-1031, Gemcitabin-5′-phosphoramidate], for which, in series [4], the tumor volume result is given as “significantly reduced tumor volume”.
For orientation: EC90 means the concentration at which the effect reaches the 90% level. On to `COc1nc(N)nc2c1ncn2[C@@H]1O[C@H](COP(=O)(N[C@@H](C)C(=O)OC(C)C)Oc2ccccc2)[C@@H](O)[C@@]1(C)F` (some centres unmarked) [PSI-353661], for which, in the series on HCV replicon (replicon assay), the EC90 was 8 nM and the “increase in potency compared to the guanosine analogue β-D-2′-deoxy-2′-R-fluoro-2′-β-C-methylguanosine” value was 1000 fold.
As for `CC(C)OC(=O)[C@H](C)N[P@](=O)(OC[C@H]1O[C@@H](n2ccc(=O)[nH]c2=O)[C@](C)(F)[C@@H]1O)Oc1ccccc1` [Sovaldi®, sofosbuvir], in series [2], the half-life at 1 μM was > 108 min. Moreover, at HCV NS5B RNA-polymerase, the “inhibitory activity compared with the corresponding nucleoside” value is recorded as “by orders of magnitude higher”. The molecule also showed a half-life in the series “physchem” of 900 min.
